Laboratory results reported in paper PMC6445168, “Design, synthesis and antimalarial activity of novel bis{N-[(pyrrolo[1,2-a]quinoxalin-4-yl)benzyl]-3-aminopropyl}amine derivatives” (Journal of Enzyme Inhibition and Medicinal Chemistry, 2017).
Like-named read-outs stand apart in the source and are kept apart here.

Columns and labels:
[1] = tested on: P. falciparum CQ-resistant strain W2; experiment: In vitro antiplasmodial activity, SYBR Green I fluorescence-based method, W2 strain; assay type: cell-based, Plasmodium falciparum; conditions: for IC50: Plasmodium falciparum, chloroquine-resistant strain W2, 48 h incubation, read-out: P. falciparum strains IC50 values, W2; for Selectivity Index HepG2/W2: ratio CC50 HepG2 / IC50 W2
Protocol: (§1) The in vitro antiplasmodial activities were tested over concentrations ranging from 39 nM to 40 μM against culture-adapted Plasmodium falciparum reference strains 3D7 and W2. […] The parasites were cultivated in RPMI medium (Sigma-Aldrich, Lyon, France) supplemented with 0.5% Albumax I (Life Technologies corporation, Paisley, United Kingdom), hypoxanthine (Sigma-Aldrich), gentamicin (Sigma-Aldrich), and human erythrocytes and were incubated at 37 °C in a candle jar, as described previously. The P. falciparum drug susceptibility test was carried out in 96-well flat bottom sterile plates under a final volume of 250 μL. After a 48 h incubation with the drugs, quantities of DNA in treated and control cultures of parasites in human erythrocytes were compared according to the SYBR Green I (Sigma-Aldrich) fluorescence-based method[38]^,[39]. Briefly, after incubation, plates were frozen at -20 °C until use. They were then left to thaw for 2 h at room temperature and 100 μL of the homogenized culture were transferred to 96-well flat bottom sterile black plates (Nunc Inc) already containing 100 μL of the SYBR Green I lysis buffer (2xSYBR Green, 20 mM Tris base pH 7.5, 5 mM EDTA, 0.008% w/v saponin, 0.08% w/v Triton X-100). […] Plates were incubated for 1 h at room temperature and then read on a fluorescence plate reader (Tecan, Austria) using excitation and emission wavelengths of 485 and 535 nm, respectively.

[2] = tested on: P. falciparum CQ-sensitive strain 3D7; experiment: In vitro antiplasmodial activity, SYBR Green I fluorescence-based method, 3D7 strain; assay type: cell-based, Plasmodium falciparum; conditions: for IC50: chloroquine-sensitive strain 3D7, 48 h incubation, read-out: P. falciparum strains IC50 values, 3D7; for Selectivity Index HepG2/3D7: ratio CC50 HepG2 / IC50 3D7
Protocol: as §1

[3] = tested on: L. donovani (MHOM/IN/00/DEVI) promastigotes; experiment: In vitro antileishmanial activity on promastigotes, MTT assay; assay type: cell-based; conditions: Leishmania donovani, 72 h incubation, mean ± SD of three independent experiments
Protocol: L. donovani (MHOM/IN/00/DEVI) used in this study was provided by the CNR Leishmania (Montpellier, France). The effects of the tested compounds on the growth of L. donovani (MHOM/IN/00/DEVI)promastigotes were assessed by MTT assay[41] .Briefly, promastigotes in log-phase in Schneider′s medium supplemented with 20% fetal calf serum (FCS), 2 mM L-glutamine and antibiotics (100 U/mL penicillin and 100 μg/mL streptomycin), were incubated at an average density of 10^6 parasites/mL in sterile 96-well plates with various concentrations of compounds dissolved in DMSO (final concentration less than 0.5% v/v), in duplicate. Appropriate controls treated by DMSO and pentamidine or amphotericin B (reference drugs purchased from Sigma-Aldrich) were added to each set of experiments. After a 72 h incubation period at 27 °C, parasite metabolic activity was determined. Each plate-well was then microscope-examined for detecting possible precipitate formation. 20 μL of MTT 3–(4,5-dimethylthiazol-2-yl)-2,5-diphenyltetrazolium bromide) solution (5 mg/mL) were added to each well followed by incubation for another 4 h. The enzyme reaction was then stopped by addition of 100 μL of 50% isopropanol – 10% sodium dodecyl sulfate[42] .Plates were shaken vigorously (300 rpm) for 10 minutes and the absorbance measured in a plate reader at 570 nm in a BIO-TEK ELx808 Absorbance Microplate Reader. […] IC50 were calculated by non-linear regression analysis processed on doseresponse curves, using TableCurve 2D V5.0 software. IC50 values represent the mean value calculated from three independent experiments.

[4] = Cytotoxicity evaluation, MTT assay; assay type: cell-based, human; conditions: human, HepG2 cells (hepatocarcinoma cell line, ATCC HB-8065); HepG2, 72 h incubation, mean ± SD of three independent experiments
Protocol: These assays were performed toward the human HepG2 cell line (HepG2 CC50). […] These cells express many of the hepatocyte-specific metabolic enzymes, thus enabling the cytotoxicity of tested product metabolites to be evaluated. […] Duplicate assays were performed for each sample. Each plate-well was then microscope-examined for detecting possible precipitate formation before the medium was aspirated from the wells. 100 μL of MTT solution (0.5 mg/mL in medium without FCS) were then added to each well. […] After this time, the MTT solution was removed and DMSO (100 μL) was added to dissolve the resulting blue formazan crystals. Plates were shaken vigorously (300 rpm) for 5 minutes. The absorbance was measured at 570 nm with 630 nm as reference wavelength spectrophotometer using a BIO-TEK ELx808 Absorbance Microplate Reader. DMSO was used as blank and doxorubicin (Sigma Aldrich) as positive control. Cell viability was calculated as percentage of control (cells incubated without compound). The 50% cytotoxic concentration was determined from the dose-response curve by using the TableCurve 2D V5.0 software (Systat Software, San Jose, CA).

[5] = Plasmodium falciparum, 3D7, 48 h

Structure (SMILES)	IC50 [1] [nM]	IC50 [2, 5] [nM]	IC50 [3] [nM]	IC50 [2] [nM]	Selectivity Index HepG2/W2 [1]	Selectivity Index HepG2/3D7 [2]	CC50 at 72 h [4] [nM]
COc1ccc2nc(-c3ccc(CNCCCN4CCN(CCCNCc5ccc(-c6nc7ccc(OC)cc7n7cccc67)cc5)CC4)cc3)c3cccn3c2c1 [1g, Bis{N-[4–(8-methoxypyrrolo[1,2-a]quinoxalin-4-yl)benzyl]-3-aminopropyl}piperazine]	360 ± 40	2220 ± 250	1070 ± 100	–	5.94	0.96	2140 ± 1400
COc1ccc2c(c1)nc(-c1ccc(CNCCCN(C)CCCNCc3ccc(-c4nc5cc(OC)ccc5n5cccc45)cc3)cc1)c1cccn12 [1d, Bis{N-[4–(7-methoxypyrrolo[1,2-a]quinoxalin-4-yl)benzyl]-3-aminopropyl}methylamine]	340 ± 40	4140 ± 30	3890 ± 300	–	7.56	0.62	2570 ± 700
C[C@@H]1[C@H](O)[C@@H](C)/C=C/C=C/C=C/C=C/C=C/C=C/C=C/[C@H](O[C@@H]2O[C@H](C)[C@@H](O)[C@H](N)[C@@H]2O)C[C@@H]2O[C@](O)(C[C@@H](O)C[C@@H](O)[C@H](O)CC[C@@H](O)C[C@@H](O)CC(=O)O[C@H]1C)C[C@H](O)[C@H]2C(=O)O [Amphotericin B, reference compound]	–	–	100 ± 40	–	–	–	–
COc1ccc2nc(-c3ccc(CNCCCN(C)CCCNCc4ccc(-c5nc6ccc(OC)cc6n6cccc56)cc4)cc3)c3cccn3c2c1 [1f, Bis{N-[4–(8-methoxypyrrolo[1,2-a]quinoxalin-4-yl)benzyl]-3-aminopropyl}methylamine]	130 ± 10	5850 ± 70	4250 ± 200	–	26	0.58	3380 ± 900
c1ccc(-c2cc3c(-c4ccc(CNCCCN5CCN(CCCNCc6ccc(-c7nc8ccccc8n8cc(-c9ccccc9)cc78)cc6)CC5)cc4)nc4ccccc4n3c2)cc1 [1l, Bis{N-[4–(2-phenylpyrrolo[1,2-a]quinoxalin-4-yl)benzyl]-3-aminopropyl}piperazine]	1390 ± 130	8960 ± 690	–	–	–	–	–
c1ccc2c(c1)nc(-c1ccc(CNCCCNCCCNCc3ccc(-c4nc5ccccc5n5cccc45)cc3)cc1)c1cccn12 [1a, Bis{N-[4-(pyrrolo[1,2-a]quinoxalin-4-yl)benzyl]-3-aminopropyl}amine]	850 ± 150	3420 ± 540	1000 ± 200	–	2.13	0.53	1810 ± 100
c1ccc(-c2nc3ccccc3n3cc(CNCCCN4CCN(CCCNCc5cc6c(-c7ccccc7)nc7ccccc7n6c5)CC4)cc23)cc1 [1r, Bis{N-[(4-phenylpyrrolo[1,2-a]quinoxalin-2-yl)methyl]-3-aminopropyl}piperazine]	750 ± 100	7220 ± 770	–	–	–	–	–

More lines, main results first:

IC50 [1] [nM]	IC50 [2, 5] [nM]	IC50 [3] [nM]	IC50 [2] [nM]	Structure (SMILES)	Selectivity Index HepG2/W2 [1]	Selectivity Index HepG2/3D7 [2]	CC50 at 72 h [4] [nM]
–	1000 ± 50	570 ± 100	–	c1ccc2c(c1)cc1c(-c3ccc(CNCCCN4CCN(CCCNCc5ccc(-c6nc7ccccc7n7c6cc6ccccc67)cc5)CC4)cc3)nc3ccccc3n12 [1q, Bis{N-[4-(indolo[1,2-a]quinoxalin-6-yl)benzyl]-3-aminopropyl}piperazine]	–	–	1560 ± 700
170 ± 30	40 ± 4	3390 ± 400	–	COc1ccc2nc(-c3cccc(CNCCCN4CCN(CCCNCc5cccc(-c6nc7ccc(OC)cc7n7cccc67)c5)CC4)c3)c3cccn3c2c1 [1p, Bis{N-[3–(8-methoxypyrrolo[1,2-a]quinoxalin-4-yl)benzyl]-3-aminopropyl}piperazine]	9.23	39.25	1570 ± 800
190 ± 20	240 ± 30	≥ 10000	–	COc1ccc2nc(-c3cccc(CNCCCN(CCCNCc4cccc(-c5nc6ccc(OC)cc6n6cccc56)c4)CCCNCc4cccc(-c5nc6ccc(OC)cc6n6cccc56)c4)c3)c3cccn3c2c1 [1t, Tris{N-[3–(8-methoxypyrrolo[1,2-a]quinoxalin-4-yl)benzyl]-3-aminopropyl}amine]	9.05	7.17	1720 ± 600
3400 ± 740	800 ± 120	1140 ± 200	–	c1ccc2c(c1)nc(-c1ccc(CNCCCN3CCN(CCCNCc4ccc(-c5nc6ccccc6n6cccc56)cc4)CC3)cc1)c1cccn12 [1c, Bis{N-[4-(pyrrolo[1,2-a]quinoxalin-4-yl)benzyl]-3-aminopropyl}piperazine]	0.37	1.56	1250 ± 300
250 ± 80	~80	≥ 10000	76 ± 9	COc1ccc2nc(-c3cccc(CNCCOCCOCCOCCNCc4cccc(-c5nc6ccc(OC)cc6n6cccc56)c4)c3)c3cccn3c2c1 [1u, N,N′-[oxybis(2,1-ethanediyloxy-2,1-ethanediyl)]bis-3–(8-methoxypyrrolo[1,2-a]quinoxalin-4-yl)benzylamine]	6.16	20.26	1540 ± 700
490 ± 160	260 ± 30	4260 ± 100	–	CCOc1ccn2c1c(-c1ccc(CNCCCN(C)CCCNCc3ccc(-c4nc5ccccc5n5ccc(OCC)c45)cc3)cc1)nc1ccccc12 [1j, Bis{N-[4–(3-ethoxypyrrolo[1,2-a]quinoxalin-4-yl)benzyl]-3-aminopropyl}methylamine]	3.98	7.50	1950 ± 300
120 ± 10	1070 ± 160	2800 ± 100	–	CN(CCCNCc1cccc(-c2nc3ccccc3n3cccc23)c1)CCCNCc1cccc(-c2nc3ccccc3n3cccc23)c1 [1m, Bis{N-[3-(pyrrolo[1,2-a]quinoxalin-4-yl)benzyl]-3-aminopropyl}methylamine]	16.17	1.81	1940 ± 1000
50 ± 10	370 ± 40	3710 ± 400	–	c1cc(CNCCCN2CCN(CCCNCc3cccc(-c4nc5ccccc5n5cccc45)c3)CC2)cc(-c2nc3ccccc3n3cccc23)c1 [1n, Bis{N-[3-(pyrrolo[1,2-a]quinoxalin-4-yl)benzyl]-3-aminopropyl}piperazine]	40.6	5.49	2030 ± 1200
4200 ± 650	1200 ± 200	–	–	CN(CCCNCc1ccc(-c2nc3ccccc3n3cccc23)cc1)CCCNCc1ccc(-c2nc3ccccc3n3cccc23)cc1 [1b, Bis{N-[4-(pyrrolo[1,2-a]quinoxalin-4-yl)benzyl]-3-aminopropyl}methylamine]	0.37	1.30	1560 ± 600
